EC50 data for 28 molecules are collected here from patent US11944622B2 (Annapurna Bio, Inc., priority 2018, dated 2024).

The term EC50 denotes the midpoint of the concentration-response curve.

The target of the experiment is T1, APJ Receptor (Homo sapiens, UniProt P35414).
T1 sequence (P35414 1-380): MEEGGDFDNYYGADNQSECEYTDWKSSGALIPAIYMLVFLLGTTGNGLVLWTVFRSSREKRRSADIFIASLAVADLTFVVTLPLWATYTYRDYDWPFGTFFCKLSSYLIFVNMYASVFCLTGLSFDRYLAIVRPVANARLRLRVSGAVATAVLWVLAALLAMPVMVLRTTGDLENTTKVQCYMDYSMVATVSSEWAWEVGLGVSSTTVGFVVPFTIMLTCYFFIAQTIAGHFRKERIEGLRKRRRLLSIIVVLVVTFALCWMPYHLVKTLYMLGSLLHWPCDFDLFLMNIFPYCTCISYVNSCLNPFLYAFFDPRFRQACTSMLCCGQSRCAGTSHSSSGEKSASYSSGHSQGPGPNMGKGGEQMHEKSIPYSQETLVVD
Kind of experiment: APJ cAMP assay (DiscoverX enzyme fragment complementation; inhibition of forskolin-stimulated cAMP). The experiment is classed as cell-based. As to conditions: CHO-K1 cell line stably expressing the APJ Receptor; EC80 forskolin; 30 minutes at 37° C.; read-out: Potency Range (APJ cAMP EC50). Summed up: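 CHO-K1 cells stably expressing APJ incubated with compound plus EC80 forskolin for 30 min at 37° C. cAMP detected by β-galactosidase enzyme fragment complementation with chemiluminescent read-out; % activity calculated relative to vehicle and maximal controls.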
Background: cAMP levels reflect the balance of adenylyl cyclase and phosphodiesterase activity.
As for `CCOc1cccc(-c2nc3ncc(NS(=O)(=O)Cc4ncc(F)cn4)nc3n2-c2c(OC)cccc2OC)n1` [Example 79, N-(1-(2,6-dimethoxyphenyl)-2-(6-ethoxypyridin-2-yl)-1H-imidazo[4,5-b]pyrazin-6-yl)-1-(5-fluoropyrimidin-2-yl)methanesulfonamide], the EC50 is < 1 nM.
In the case of `CCOc1cccc(-c2nc3ncc(NS(=O)(=O)Cc4ncc(C)cn4)nc3n2-c2c(OC)cccc2OC)n1` [Example 80, N-(1-(2,6-dimethoxyphenyl)-2-(6-ethoxypyridin-2-yl)-1H-imidazo[4,5-b]pyrazin-6-yl)-1-(5-methylpyrimidin-2-yl)methanesulfonamide] it was < 1 nM.
The same measure for `CCOc1cccc(-c2nc3ncc(NS(=O)(=O)C[C@H]4C[C@](C)(O)C4)nc3n2-c2c(OC)cccc2OC)n1` [Example 81, trans-N-(1-(2,6-Dimethoxyphenyl)-2-(6-ethoxypyridin-2-yl)-1H-imidazo[4,5-b]pyrazin-6-yl)-1-((1r,3r)-3-hydroxy-3-methylcyclobutyl)methanesulfonamide]: 1 to 100 nM; for `CC#CCS(=O)(=O)Nc1cnc2nc(-c3cccc(OCC)n3)n(-c3c(OC)cccc3OC)c2n1` [Example 82, N-(1-(2,6-Dimethoxyphenyl)-2-(6-ethoxypyridin-2-yl)-1H-imidazo[4,5-b]pyrazin-6-yl)but-2-yne-1-sulfonamide]: 1 to 100 nM.
The same measure for `CCOc1cccc(-c2nc3ncc(NS(=O)(=O)Cc4ccc(C)cn4)nc3n2-c2c(OC)cccc2OC)n1` [Example 83, N-(1-(2,6-Dimethoxyphenyl)-2-(6-ethoxypyridin-2-yl)-1H-imidazo[4,5-b]pyrazin-6-yl)-1-(5-methylpyridin-2-yl)methanesulfonamide]: < 1 nM.
As for `CCOc1cccc(-c2nc3nc(CC)c(NS(C)(=O)=O)nc3n2-c2c(OC)cccc2OC)n1` [Example 86, N-(1-(2,6-dimethoxyphenyl)-2-(6-ethoxypyridin-2-yl)-5-ethyl-1H-imidazo[4,5-b]pyrazin-6-yl)methanesulfonamide], the concentration for a half-maximal effect (EC50) is 1 to 100 nM.
In the case of `CCOc1cccc(-c2nc3nc(C)c(NS(C)(=O)=O)nc3n2-c2c(OC)cccc2OC)n1` [Example 87, N-(1-(2,6-Dimethoxyphenyl)-2-(6-ethoxypyridin-2-yl)-5-methyl-1H-imidazo[4,5-b]pyrazin-6-yl)methanesulfonamide], the EC50 was in the range of 1 to 100 nM.
As for `CCOc1cccc(-c2nc3nc(CC4CCC4)c(NS(C)(=O)=O)nc3n2-c2c(OC)cccc2OC)n1` [Example 88], the EC50 is < 1 nM.
In the case of `CCOc1cccc(-c2nc3nc(OC4CC4)c(NS(C)(=O)=O)nc3n2-c2c(OC)cccc2OC)n1` [Example 89, N-(5-Cyclopropoxy-1-(2,6-dimethoxyphenyl)-2-(6-ethoxypyridin-2-yl)-1H-imidazo[4,5-b]pyrazin-6-yl)methanesulfonamide] it was 100 to 10000 nM.
The same measure for `CCOc1cccc(-c2nc3nc(NS(=O)(=O)N4CCOCC4)cnc3n2-c2c(OC)cccc2OC)n1` [Example 90, N-(1-(2,6-Dimethoxyphenyl)-2-(6-ethoxypyridin-2-yl)-1H-imidazo[4,5-b]pyrazin-5-yl)morpholine-4-sulfonamide]: < 1 nM; for `CCOc1cccc(-c2nc3nc(NS(=O)(=O)Cc4ncc(C)cn4)cnc3n2-c2c(OC)cccc2OC)n1` [Example 91, N-(1-(2,6-Dimethoxyphenyl)-2-(6-ethoxypyridin-2-yl)-1H-imidazo[4,5-b]pyrazin-5-yl)-1-(5-methylpyrimidin-2-yl)methanesulfonamide]: < 1 nM.
The same measure for `CCOc1cccc(-c2nc3nc(NS(=O)(=O)C4CC4)cnc3n2-c2c(OC)cccc2OC)n1` [Example 92, N-(1-(2,6-Dimethoxyphenyl)-2-(6-ethoxypyridin-2-yl)-1H-imidazo[4,5-b]pyrazin-5-yl)cyclopropanesulfonamide]: 1 to 100 nM; for `CCOc1cccc(-c2nc3nc(NS(=O)(=O)CC4(O)CNC4)cnc3n2-c2c(OC)cccc2OC)n1` [Example 93, N-(1-(2,6-Dimethoxyphenyl)-2-(6-ethoxypyridin-2-yl)-1H-imidazo[4,5-b]pyrazin-5-yl)-1-(3-hydroxyazetidin-3-yl)methanesulfonamide]: < 1 nM.
On to `CCOc1cccc(-c2nc3nc(Cl)c(NS(=O)(=O)Cc4ncccc4F)nc3n2-c2c(OC)cccc2OC)n1` [Example 94, N-(5-Chloro-1-(2,6-dimethoxyphenyl)-2-(6-ethoxypyridin-2-yl)-1H-imidazo[4,5-b]pyrazin-6-yl)-1-(3-fluoropyridin-2-yl)methanesulfonamide], for which the EC50 was in the range of 1 to 100 nM.
The same measure for `CCOc1cccc(-c2nc3nc(Cl)c(NS(=O)(=O)Cc4ccccn4)nc3n2-c2c(OC)cccc2OC)n1` [Example 95, N-(5-Chloro-1-(2,6-dimethoxyphenyl)-2-(6-ethoxypyridin-2-yl)-1H-imidazo[4,5-b]pyrazin-6-yl)-1-(pyridin-2-yl)methanesulfonamide]: 1 to 100 nM.
Regarding `CCOc1cccc(-c2nc3nc(Cl)c(NS(=O)(=O)Cc4ccc(F)cn4)nc3n2-c2c(OC)cccc2OC)n1` [Example 96, N-(5-Chloro-1-(2,6-dimethoxyphenyl)-2-(6-ethoxypyridin-2-yl)-1H-imidazo[4,5-b]pyrazin-6-yl)-1-(5-fluoropyridin-2-yl)methanesulfonamide], the EC50 is < 1 nM.
With `CCOc1cccc(-c2nc3nc(Cl)c(NS(=O)(=O)C4CC4)nc3n2-c2c(OC)cccc2OC)n1` [Example 97, N-(5-Chloro-1-(2,6-dimethoxyphenyl)-2-(6-ethoxypyridin-2-yl)-1H-imidazo[4,5-b]pyrazin-6-yl)cyclopropanesulfonamide], the EC50 was in the range of 1 to 100 nM.
In the case of `CCOc1cccc(-c2nc3nc(Cl)c(NS(=O)(=O)N4CCOCC4)nc3n2-c2c(OC)cccc2OC)n1` [Example 98, N-(5-Chloro-1-(2,6-dimethoxyphenyl)-2-(6-ethoxypyridin-2-yl)-1H-imidazo[4,5-b]pyrazin-6-yl)morpholine-4-sulfonamide] it was 1 to 100 nM.
Regarding `CCOc1cccc(-c2nc3nc(Cl)c(NS(=O)(=O)c4ccc(F)cn4)nc3n2-c2c(OC)cccc2OC)n1` [Example 99, N-(5-Chloro-1-(2,6-dimethoxyphenyl)-2-(6-ethoxypyridin-2-yl)-1H-imidazo[4,5-b]pyrazin-6-yl)-5-fluoropyridine-2-sulfonamide], the EC50 lay within 1 to 100 nM.
In the case of `CCOc1cccc(-c2nc3nc(Cl)c(NS(=O)(=O)Cc4ccc(C)cc4F)nc3n2-c2c(OC)cccc2OC)n1` [Example 100, N-(5-Chloro-1-(2,6-dimethoxyphenyl)-2-(6-ethoxypyridin-2-yl)-1H-imidazo[4,5-b]pyrazin-6-yl)-1-(2-fluoro-4-methylphenyl)methanesulfonamide] it was 1 to 100 nM.
In the case of `CCOc1cccc(-c2nc3nc(Cl)c(NS(=O)(=O)c4ccc(C)cn4)nc3n2-c2c(OC)cccc2OC)n1` [Example 101, N-(5-Chloro-1-(2,6-dimethoxyphenyl)-2-(6-ethoxypyridin-2-yl)-1H-imidazo[4,5-b]pyrazin-6-yl)-5-methylpyridine-2-sulfonamide] it was < 1 nM; in that of `CCOc1cccc(-c2nc3nc(Cl)c(NS(=O)(=O)c4ccccn4)nc3n2-c2c(OC)cccc2OC)n1` [Example 102, N-(5-Chloro-1-(2,6-dimethoxyphenyl)-2-(6-ethoxypyridin-2-yl)-1H-imidazo[4,5-b]pyrazin-6-yl)pyridine-2-sulfonamide], 1 to 100 nM; in that of `CCOc1cccc(-c2nc3nc(Cl)c(NS(=O)(=O)c4ccc(CF)cc4)nc3n2-c2c(OC)cccc2OC)n1` [Example 103, N-(5-Chloro-1-(2,6-dimethoxyphenyl)-2-(6-ethoxypyridin-2-yl)-1H-imidazo[4,5-b]pyrazin-6-yl)-4-(fluoromethyl)benzenesulfonamide], < 1 nM.
The same measure for `CCOc1cccc(-c2nc3nc(Cl)c(NS(=O)(=O)c4cccnc4)nc3n2-c2c(OC)cccc2OC)n1` [Example 104, N-(5-Chloro-1-(2,6-dimethoxyphenyl)-2-(6-ethoxypyridin-2-yl)-1H-imidazo[4,5-b]pyrazin-6-yl)pyridine-3-sulfonamide]: 1 to 100 nM; for `CCOc1cccc(-c2nc3nc(Cl)c(NS(=O)(=O)Cc4ncc(F)cn4)nc3n2-c2c(OC)cccc2OC)n1` [Example 105, N-(5-Chloro-1-(2,6-dimethoxyphenyl)-2-(6-ethoxypyridin-2-yl)-1H-imidazo[4,5-b]pyrazin-6-yl)-1-(5-fluoropyrimidin-2-yl)methanesulfonamide]: < 1 nM; for `CCOc1cccc(-c2nc3nc(Cl)c(NS(=O)(=O)c4ccc(C(F)F)cc4)nc3n2-c2c(OC)cccc2OC)n1` [Example 106, N-(5-Chloro-1-(2,6-dimethoxyphenyl)-2-(6-ethoxypyridin-2-yl)-1H-imidazo[4,5-b]pyrazin-6-yl)-4-(difluoromethyl)benzenesulfonamide]: 1 to 100 nM.
For `CCOc1cccc(-c2nc3nc(Cl)c(NS(=O)(=O)Cc4ccc(C)c(F)c4)nc3n2-c2c(OC)cccc2OC)n1` [Example 107, N-(5-Chloro-1-(2,6-dimethoxyphenyl)-2-(6-ethoxypyridin-2-yl)-1H-imidazo[4,5-b]pyrazin-6-yl)-1-(3-fluoro-4-methylphenyl)methanesulfonamide], the EC50 was < 1 nM.
The same measure for `CCOc1cccc(-c2nc3nc(Cl)c(NS(=O)(=O)Cc4ccc(F)cc4)nc3n2-c2c(OC)cccc2OC)n1` [Example 108, N-(5-Chloro-1-(2,6-dimethoxyphenyl)-2-(6-ethoxypyridin-2-yl)-1H-imidazo[4,5-b]pyrazin-6-yl)-1-(4-fluorophenyl)methanesulfonamide]: < 1 nM.
